Assay results as given in patent US5675003A, “3-ammoniopropenyl cephalosporin compounds as antibacterial agents” (Korea Institute of Science and Technology, priority 1995, dated 1997).
Converted amounts (≈) assume the structure as drawn.

Legend:
Assay in all cases: MIC, in vitro agar dilution method
Type in all cases: cell-based
[1] = tested on: Streptococcus pyogenes 308 A; settings: S.p.1, Streptococcus pyogenes 308 A; agar dilution; read-out: MIC
Experimental: (§1) The MICs of the new cephalosporins of the present invention against Gram-positive and Gram-negative bacteria were determined by an in vitro agar dilution method. For comparisons, the MIC values of ceftazidime are also listed.
(§2) In vitro antimicrobial activity of the cephalosporins (l) (MIC:
S.p.1, Streptococcus pyogenes 308 A;

[2] = tested on: Streptococcus pyogenes A 77; settings: A77; S.p.2, Streptococcus pyogenes A 77; agar dilution; read-out: MIC
Experimental: as §1, §2
S.p.2, Streptococcus pyogenes A 77;

Streptococcus faecium MD = settings: Enterococcus faecium; S.f., Streptococcus faecium MD; agar dilution; read-out: MIC
Experimental: as §1, §2
S.f., Streptococcus faecium MD;

[3] = tested on: Staphlococcus aureus SG 511; settings: S.a.1, Staphlococcus aureus SG 511; agar dilution; read-out: MIC
Experimental: as §1, §2
S.a.1, Staphlococcus aureus SG 511;

[4] = tested on: Staphylococcus aureus 285; settings: S.a.2, Staphylococcus aureus 285; agar dilution; read-out: MIC
Experimental: as §1, §2
E.c. TEM, S.a. 2, Staphylococcus aureus 285;

[5] = tested on: Staphylococcus aureus 503; settings: S.a.3, Staphylococcus aureus 503; agar dilution; read-out: MIC
Experimental: as §1, §2
S.a.3, Staphylococcus aureus 503;

Escherichia coli O55 = settings: E.c.1, Escherichia coli O55
Experimental: as §1, §2
E.c.1, Escherichia coli O55;

Escherichia coli DC0 = settings: E.c.2, Escherichia coli DC0
Experimental: as §1, §2
E.c.2, Escherichia coli DC0;

Escherichia coli TEM = settings: E.c.3, Escherichia coli TEM
Experimental: as §1, §2
E.c.3, Escherichia coli TEM;

Escherichia coli 1507 E = settings: E.c.4, Escherichia coli 1507 E
Experimental: as §1, §2
E.c.4, Escherichia coli 1507 E;

E.c.5 = settings: Escherichia coli, E.c.5 (strain not defined)
Experimental: as §1

[6] = tested on: Pseudomonas aeruginosa 9027; settings: P.a.1, Pseudomonas aeruginosa 9027; agar dilution; read-out: MIC
Experimental: as §1, §2
P.a.1, Pseudomonas aeruginosa 9027;

[7] = tested on: Pseudomonas aeruginosa 1592 E; settings: P.a.2, Pseudomonas aeruginosa 1592 E; agar dilution; read-out: MIC
Experimental: as §1, §2
P.a.2, Pseudomonas aeruginosa 1592 E;

[8] = tested on: Pseudomonas eruginosa 1771; settings: P.a.3, Pseudomonas eruginosa 1771
Experimental: as §1, §2
P.a.3, Pseudomonas eruginosa 1771;

[9] = tested on: Pseudomonas aeruginosa 1771 M; settings: P.a.4, Pseudomonas aeruginosa 1771 M; agar dilution; read-out: MIC
Experimental: as §1, §2
P.a.4, Pseudomonas aeruginosa 1771 M;

Salmonella typhimurium = settings: Salmonella enterica; S.t., Salmonella typhimurium; agar dilution; read-out: MIC
Experimental: as §1, §2
S.t., Salmonella typhimurium;

[10] = tested on: Klebsiella oxytoca 1082 E; settings: K.o., Klebsiella oxytoca 1082 E; agar dilution; read-out: MIC
Experimental: as §1, §2
K.o., Klebsiella oxytoca 1082 E;

[11] = tested on: Klebsiella aerogenes 1552 E; settings: K.a., Klebsiella aerogenes 1552 E; agar dilution; read-out: MIC
Experimental: as §1, §2
K.a., Klebsiella aerogenes 1552 E;

[12] = tested on: Enterobacter cloacae P 99; settings: Enterobacter cloacae, P99
Experimental: as §1, §2
En.c.1, Enterobacter cloacae P 99;

[13] = tested on: Enterobacter cloacae 1321 E; settings: En.c.2, Enterobacter cloacae 1321 E; agar dilution; read-out: MIC
Experimental: as §1, §2
En.c.2, Enterobacter cloacae 1321 E.

Compound: CO/N=C(\C(=O)N[C@@H]1C(=O)N2C(C(=O)[O-])=C(/C=C/C[N+]3(C)C[C@@H](O)[C@@H](O)C3)CS[C@H]12)c1csc(N)n1 (stereo partly drawn) [1-a, 7β-[2-(2-Aminothiazol-4-yl)-(Z)-2-methoxyiminoacetamido]-3-[(E)-3-(meso-3,4-dihydroxy-1-methyl-1-pyrrolidinio)-1-propen-1-yl]-3-cephem-4-carboxylate]
- MIC [1]: 0.013 µg/mL (≈ 0.0241 µM)
- MIC [2]: 0.013 µg/mL (≈ 0.0241 µM)
- MIC (Streptococcus faecium MD): 50 µg/mL (≈ 92.8 µM)
- MIC [3]: 0.39 µg/mL (≈ 0.724 µM)
- MIC [4]: 0.78 µg/mL (≈ 1.45 µM)
- MIC [5]: 0.2 µg/mL (≈ 0.371 µM)
- MIC (Escherichia coli O55): 0.013 µg/mL (≈ 0.0241 µM)
- MIC (Escherichia coli DC0): 0.049 µg/mL (≈ 0.091 µM)
- MIC (Escherichia coli TEM): 0.025 µg/mL (≈ 0.0464 µM)
- MIC (Escherichia coli 1507 E): 0.049 µg/mL (≈ 0.091 µM)
- MIC (E.c.5): 0.049 µg/mL (≈ 0.091 µM)
- MIC [6]: 3.13 µg/mL (≈ 5.81 µM)
- MIC [7]: 3.13 µg/mL (≈ 5.81 µM)
- MIC [8]: 1.56 µg/mL (≈ 2.9 µM)
- MIC [9]: 0.098 µg/mL (≈ 0.182 µM)
- MIC (Salmonella typhimurium): 0.013 µg/mL (≈ 0.0241 µM)
- MIC [10]: 3.13 µg/mL (≈ 5.81 µM)
- MIC [11]: 0.025 µg/mL (≈ 0.0464 µM)
- MIC [12]: 6.25 µg/mL (≈ 11.6 µM)
- MIC [13]: 0.013 µg/mL (≈ 0.0241 µM)

Compound: CO/N=C(\C(=O)N[C@@H]1C(=O)N2C(C(=O)[O-])=C(/C=C/C[N+]3(C)CC[C@H](O)[C@H](O)C3)CS[C@H]12)c1csc(N)n1 (relative stereo) [1-e, 7β-[2-(2-Aminothiazol-4-yl)-(Z)-2-methoxyiminoacetamido]-3-[(E)-3-(3,4-cis-dihydroxy-1-methyl-1-piperidinio)-1-propen-1-yl]-3-cephem-4-carboxylate]
- MIC [1]: 0.013 µg/mL (≈ 0.0235 µM)
- MIC [2]: 0.013 µg/mL (≈ 0.0235 µM)
- MIC (Streptococcus faecium MD): 50 µg/mL (≈ 90.5 µM)
- MIC [3]: 0.39 µg/mL (≈ 0.706 µM)
- MIC [4]: 0.78 µg/mL (≈ 1.41 µM)
- MIC [5]: 0.2 µg/mL (≈ 0.362 µM)
- MIC (Escherichia coli O55): 0.025 µg/mL (≈ 0.0452 µM)
- MIC (Escherichia coli DC0): 0.049 µg/mL (≈ 0.0887 µM)
- MIC (Escherichia coli TEM): 0.025 µg/mL (≈ 0.0452 µM)
- MIC (Escherichia coli 1507 E): 0.049 µg/mL (≈ 0.0887 µM)
- MIC (E.c.5): 0.049 µg/mL (≈ 0.0887 µM)
- MIC [6]: 6.25 µg/mL (≈ 11.3 µM)
- MIC [7]: 3.13 µg/mL (≈ 5.66 µM)
- MIC [8]: 1.56 µg/mL (≈ 2.82 µM)
- MIC [9]: 0.2 µg/mL (≈ 0.362 µM)
- MIC (Salmonella typhimurium): 0.025 µg/mL (≈ 0.0452 µM)
- MIC [10]: 3.13 µg/mL (≈ 5.66 µM)
- MIC [11]: 0.025 µg/mL (≈ 0.0452 µM)
- MIC [12]: 6.25 µg/mL (≈ 11.3 µM)
- MIC [13]: 0.025 µg/mL (≈ 0.0452 µM)

Compound: CON=C(C(=O)NC1C(=O)N2C(C(=O)[O-])=C(C=CC[N+]3(C)C4CCC3CC(O)C4)CSC12)c1csc(N)n1 (stereo not drawn) [1-i, 7β-[2-(2-Aminothiazol-4-yl)-(Z)-2-methoxyiminoacetamido]-3-[(E)-3-tropinio-1-propen-1-yl]-3-cephem-4-carboxylate]
- MIC [1]: 0.013 µg/mL (≈ 0.0231 µM)
- MIC [2]: 0.013 µg/mL (≈ 0.0231 µM)
- MIC (Streptococcus faecium MD): 50 µg/mL (≈ 88.9 µM)
- MIC [3]: 0.39 µg/mL (≈ 0.693 µM)
- MIC [4]: 0.78 µg/mL (≈ 1.39 µM)
- MIC [5]: 0.2 µg/mL (≈ 0.355 µM)
- MIC (Escherichia coli O55): 0.025 µg/mL (≈ 0.0444 µM)
- MIC (Escherichia coli DC0): 0.049 µg/mL (≈ 0.0871 µM)
- MIC (Escherichia coli TEM): 0.025 µg/mL (≈ 0.0444 µM)
- MIC (Escherichia coli 1507 E): 0.098 µg/mL (≈ 0.174 µM)
- MIC (E.c.5): 0.049 µg/mL (≈ 0.0871 µM)
- MIC [6]: 6.25 µg/mL (≈ 11.1 µM)
- MIC [7]: 3.13 µg/mL (≈ 5.56 µM)
- MIC [8]: 1.56 µg/mL (≈ 2.77 µM)
- MIC [9]: 0.2 µg/mL (≈ 0.355 µM)
- MIC (Salmonella typhimurium): 0.049 µg/mL (≈ 0.0871 µM)
- MIC [10]: 1.56 µg/mL (≈ 2.77 µM)
- MIC [11]: 0.025 µg/mL (≈ 0.0444 µM)
- MIC [12]: 6.25 µg/mL (≈ 11.1 µM)
- MIC [13]: 0.025 µg/mL (≈ 0.0444 µM)

Compound: CO/N=C(\C(=O)N[C@@H]1C(=O)N2C(C(=O)[O-])=C(/C=C/C[N+]3(C)CC[C@@H](O)[C@H](O)C3)CS[C@H]12)c1csc(N)n1 (relative stereo) [1-f, 7β-[2-(2-Aminothiazol-4-yl)-(Z)-2-methoxyiminoacetamido]-3-[(E)-3-(3,4-trans-dihydroxy-1-methyl-1-piperidinio)-1-propen-1-yl]-3-cephem-4-carboxylate]
- MIC [1]: 0.013 µg/mL (≈ 0.0235 µM)
- MIC [2]: 0.013 µg/mL (≈ 0.0235 µM)
- MIC (Streptococcus faecium MD): 50 µg/mL (≈ 90.5 µM)
- MIC [3]: 0.39 µg/mL (≈ 0.706 µM)
- MIC [4]: 0.78 µg/mL (≈ 1.41 µM)
- MIC [5]: 0.2 µg/mL (≈ 0.362 µM)
- MIC (Escherichia coli O55): 0.025 µg/mL (≈ 0.0452 µM)
- MIC (Escherichia coli DC0): 0.049 µg/mL (≈ 0.0887 µM)
- MIC (Escherichia coli TEM): 0.025 µg/mL (≈ 0.0452 µM)
- MIC (Escherichia coli 1507 E): 0.049 µg/mL (≈ 0.0887 µM)
- MIC (E.c.5): 0.049 µg/mL (≈ 0.0887 µM)
- MIC [6]: 3.13 µg/mL (≈ 5.66 µM)
- MIC [7]: 1.56 µg/mL (≈ 2.82 µM)
- MIC [8]: 0.78 µg/mL (≈ 1.41 µM)
- MIC [9]: 0.098 µg/mL (≈ 0.177 µM)
- MIC (Salmonella typhimurium): 0.025 µg/mL (≈ 0.0452 µM)
- MIC [10]: 3.13 µg/mL (≈ 5.66 µM)
- MIC [11]: 0.025 µg/mL (≈ 0.0452 µM)
- MIC [12]: 12.5 µg/mL (≈ 22.6 µM)
- MIC [13]: 0.025 µg/mL (≈ 0.0452 µM)

Compound: CO/N=C(\C(=O)N[C@@H]1C(=O)N2C(C(=O)[O-])=C(/C=C/C[N+]3(C)CCCCC3CO)CS[C@H]12)c1csc(N)n1 (stereo partly shown) [1-h]
- MIC [1]: 0.013 µg/mL (≈ 0.0236 µM)
- MIC [2]: 0.007 µg/mL (≈ 0.0127 µM)
- MIC (Streptococcus faecium MD): 25 µg/mL (≈ 45.4 µM)
- MIC [3]: 0.39 µg/mL (≈ 0.708 µM)
- MIC [4]: 0.39 µg/mL (≈ 0.708 µM)
- MIC [5]: 0.2 µg/mL (≈ 0.363 µM)
- MIC (Escherichia coli O55): 0.013 µg/mL (≈ 0.0236 µM)
- MIC (Escherichia coli DC0): 0.049 µg/mL (≈ 0.089 µM)
- MIC (Escherichia coli TEM): 0.025 µg/mL (≈ 0.0454 µM)
- MIC (Escherichia coli 1507 E): 0.049 µg/mL (≈ 0.089 µM)
- MIC (E.c.5): 0.049 µg/mL (≈ 0.089 µM)
- MIC [6]: 6.25 µg/mL (≈ 11.3 µM)
- MIC [7]: 3.13 µg/mL (≈ 5.68 µM)
- MIC [8]: 1.56 µg/mL (≈ 2.83 µM)
- MIC [9]: 0.098 µg/mL (≈ 0.178 µM)
- MIC (Salmonella typhimurium): 0.025 µg/mL (≈ 0.0454 µM)
- MIC [10]: 1.56 µg/mL (≈ 2.83 µM)
- MIC [11]: 0.025 µg/mL (≈ 0.0454 µM)
- MIC [12]: 3.13 µg/mL (≈ 5.68 µM)
- MIC [13]: 0.013 µg/mL (≈ 0.0236 µM)
